# Experimental data published in ChEMBL document CHEMBL5465560, “Selectivity Literature for EUbOPEN Chemogenomic Library” (2024).
# Assays:
# [1] = biological target: Tyrosine-protein kinase receptor UFO (Homo sapiens) (UniProt P30530); test: Selectivity interaction (Millipore kinase profiler) EUB0000124b AXL; conditions: at 10 µM
# [2] = biological target: Mitogen-activated protein kinase kinase kinase 20 (Homo sapiens) (UniProt Q9NYL2); test: Selectivity interaction (KinomeScan (DiscoverX)) EUB0000666a MAP3K20; conditions: at 10 µM
# Chain of Mitogen-activated protein kinase kinase kinase 20 (Homo sapiens) (Q9NYL2 2-800 limits assumed): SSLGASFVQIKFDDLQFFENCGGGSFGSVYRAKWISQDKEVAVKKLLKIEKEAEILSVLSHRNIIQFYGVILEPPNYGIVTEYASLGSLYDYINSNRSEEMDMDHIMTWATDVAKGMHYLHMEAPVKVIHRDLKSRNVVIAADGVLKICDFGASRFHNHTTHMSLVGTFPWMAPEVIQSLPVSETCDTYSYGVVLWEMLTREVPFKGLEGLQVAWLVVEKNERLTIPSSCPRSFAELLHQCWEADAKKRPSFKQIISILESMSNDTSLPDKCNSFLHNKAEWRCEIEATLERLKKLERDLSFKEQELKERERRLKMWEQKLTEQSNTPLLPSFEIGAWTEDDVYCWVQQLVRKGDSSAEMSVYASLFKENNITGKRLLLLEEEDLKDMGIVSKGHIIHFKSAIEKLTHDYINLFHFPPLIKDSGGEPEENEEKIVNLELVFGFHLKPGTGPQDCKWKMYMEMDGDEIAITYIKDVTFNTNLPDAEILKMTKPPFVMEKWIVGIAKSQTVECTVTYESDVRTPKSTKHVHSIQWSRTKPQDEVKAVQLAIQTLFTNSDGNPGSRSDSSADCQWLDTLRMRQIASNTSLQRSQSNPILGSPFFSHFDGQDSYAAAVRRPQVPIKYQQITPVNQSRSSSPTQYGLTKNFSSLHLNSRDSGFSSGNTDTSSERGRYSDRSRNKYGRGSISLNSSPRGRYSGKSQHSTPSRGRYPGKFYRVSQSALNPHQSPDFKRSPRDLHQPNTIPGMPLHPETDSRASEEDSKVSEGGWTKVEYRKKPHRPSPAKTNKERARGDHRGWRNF
# [3] = biological target: Serine/threonine-protein kinase 25 (Homo sapiens) (UniProt O00506); test: Selectivity interaction (KinomeScan (DiscoverX)) EUB0000229b STK25; conditions: at 10 µM
# [4] = biological target: Dual specificity mitogen-activated protein kinase kinase 1 (Homo sapiens, UniProt Q02750); test: Selectivity interaction (Kinase panel (KiNativ target engagement assay in Jurkat cells)) EUB0001635a MAP2K1; assay type: cell-based; conditions: Selectivity number of off-targets 0.0, Selectivity number of targets 233.0, Source Knowledge https://www.sciencedirect.com/science/article/pii/S2451945619300674?via%3Dihub, at 1 µM
# Chain of Dual specificity mitogen-activated protein kinase kinase 1 (Q02750 whole entry): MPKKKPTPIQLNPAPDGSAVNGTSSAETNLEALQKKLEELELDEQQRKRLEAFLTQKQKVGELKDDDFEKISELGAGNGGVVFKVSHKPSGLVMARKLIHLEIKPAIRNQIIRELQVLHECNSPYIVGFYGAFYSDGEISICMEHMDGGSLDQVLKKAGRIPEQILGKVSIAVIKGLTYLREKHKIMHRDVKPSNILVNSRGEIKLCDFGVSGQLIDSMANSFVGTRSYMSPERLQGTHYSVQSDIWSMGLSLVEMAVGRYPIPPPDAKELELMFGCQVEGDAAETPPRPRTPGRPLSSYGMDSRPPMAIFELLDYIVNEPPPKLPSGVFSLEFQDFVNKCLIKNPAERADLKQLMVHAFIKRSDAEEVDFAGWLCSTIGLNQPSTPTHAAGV
# [5] = biological target: RAF proto-oncogene serine/threonine-protein kinase (Homo sapiens) (UniProt P04049); test: Selectivity interaction (Kinase panel (Eurofins)) EUB0001564a RAF1; conditions: at 1 µM
# [6] = biological target: Interferon-induced, double-stranded RNA-activated protein kinase (Homo sapiens) (UniProt P19525); test: Selectivity interaction (KinomeScan (DiscoverX)) EUB0000092b EIF2AK2; conditions: at 10 µM
# [7] = biological target: Serine/threonine-protein kinase Nek7 (Homo sapiens) (UniProt Q8TDX7); test: Selectivity interaction (KinomeScan (DiscoverX)) EUB0000092b NEK7; conditions: at 10 µM
# Chain of Serine/threonine-protein kinase Nek7 (Homo sapiens) (Q8TDX7 whole entry, looked up): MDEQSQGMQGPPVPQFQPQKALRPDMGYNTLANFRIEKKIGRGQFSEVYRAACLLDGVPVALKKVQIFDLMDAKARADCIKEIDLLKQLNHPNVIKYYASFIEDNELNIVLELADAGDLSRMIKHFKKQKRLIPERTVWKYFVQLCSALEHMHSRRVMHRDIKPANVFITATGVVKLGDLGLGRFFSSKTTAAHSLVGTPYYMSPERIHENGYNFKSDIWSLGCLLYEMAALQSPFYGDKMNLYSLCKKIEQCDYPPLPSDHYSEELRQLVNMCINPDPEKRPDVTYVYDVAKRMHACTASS
# [8] = biological target: Tyrosine-protein kinase ABL1 (Homo sapiens, UniProt P00519); test: Selectivity interaction (Kinase screening (Nanosyn)) EUB0000604a ABL1
# Chain of Tyrosine-protein kinase ABL1 (P00519 whole entry): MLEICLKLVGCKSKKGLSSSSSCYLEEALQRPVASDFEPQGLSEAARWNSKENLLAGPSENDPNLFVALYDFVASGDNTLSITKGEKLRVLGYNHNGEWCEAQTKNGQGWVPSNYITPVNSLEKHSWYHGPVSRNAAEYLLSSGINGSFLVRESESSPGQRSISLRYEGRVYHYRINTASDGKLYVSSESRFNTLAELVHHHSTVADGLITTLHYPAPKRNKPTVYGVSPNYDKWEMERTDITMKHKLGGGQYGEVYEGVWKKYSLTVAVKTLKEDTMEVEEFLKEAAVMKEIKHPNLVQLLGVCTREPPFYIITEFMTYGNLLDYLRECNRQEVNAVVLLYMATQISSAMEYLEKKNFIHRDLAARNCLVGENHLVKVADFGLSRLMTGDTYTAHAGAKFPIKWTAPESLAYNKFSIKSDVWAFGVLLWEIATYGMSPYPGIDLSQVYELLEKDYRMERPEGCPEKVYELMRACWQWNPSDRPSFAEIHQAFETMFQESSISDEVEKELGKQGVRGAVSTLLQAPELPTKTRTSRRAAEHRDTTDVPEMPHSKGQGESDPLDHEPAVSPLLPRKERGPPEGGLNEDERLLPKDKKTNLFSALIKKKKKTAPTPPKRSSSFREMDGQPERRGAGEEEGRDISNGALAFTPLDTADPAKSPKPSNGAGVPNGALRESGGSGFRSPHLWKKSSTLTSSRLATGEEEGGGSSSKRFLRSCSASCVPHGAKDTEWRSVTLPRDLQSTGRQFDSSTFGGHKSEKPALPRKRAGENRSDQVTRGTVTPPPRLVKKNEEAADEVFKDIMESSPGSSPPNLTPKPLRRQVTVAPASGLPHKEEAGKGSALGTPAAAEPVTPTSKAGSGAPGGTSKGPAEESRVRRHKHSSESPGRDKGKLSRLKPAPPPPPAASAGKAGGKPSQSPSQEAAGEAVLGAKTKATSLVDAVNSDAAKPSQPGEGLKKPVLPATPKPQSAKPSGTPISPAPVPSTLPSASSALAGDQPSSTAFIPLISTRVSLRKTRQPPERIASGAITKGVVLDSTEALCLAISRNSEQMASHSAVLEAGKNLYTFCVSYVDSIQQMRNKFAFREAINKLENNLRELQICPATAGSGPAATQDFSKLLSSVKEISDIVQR
# [9] = biological target: T1, Rhodopsin kinase GRK1 (Homo sapiens) (UniProt Q15835); test: Selectivity interaction (KinomeScan (DiscoverX)) EUB0000618a GRK1; conditions: at 10 µM
# T1 sequence (whole entry): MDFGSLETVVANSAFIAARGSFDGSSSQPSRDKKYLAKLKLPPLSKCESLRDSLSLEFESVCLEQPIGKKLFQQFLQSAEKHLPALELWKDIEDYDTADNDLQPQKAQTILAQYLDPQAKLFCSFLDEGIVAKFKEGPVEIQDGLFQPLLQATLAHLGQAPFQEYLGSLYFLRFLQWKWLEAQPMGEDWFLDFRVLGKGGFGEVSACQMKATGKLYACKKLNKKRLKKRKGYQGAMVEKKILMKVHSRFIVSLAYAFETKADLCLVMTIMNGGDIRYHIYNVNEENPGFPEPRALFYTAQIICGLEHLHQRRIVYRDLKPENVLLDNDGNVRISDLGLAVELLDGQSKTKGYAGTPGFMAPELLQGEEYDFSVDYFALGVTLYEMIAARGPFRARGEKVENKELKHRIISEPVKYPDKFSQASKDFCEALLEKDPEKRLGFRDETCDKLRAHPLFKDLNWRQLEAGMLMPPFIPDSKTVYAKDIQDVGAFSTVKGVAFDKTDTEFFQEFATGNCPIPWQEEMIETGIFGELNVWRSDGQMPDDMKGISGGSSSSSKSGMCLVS
# [10] = biological target: Fibroblast growth factor receptor 2 (Homo sapiens) (UniProt P21802); test: Selectivity interaction (Upstate Kinase Profiler service (Millipore)) EUB0000056c FGFR2; conditions: at 1 µM
# [11] = biological target: Vascular endothelial growth factor receptor 1 (Homo sapiens) (UniProt P17948); test: Selectivity interaction (Upstate Kinase Profiler service (Millipore)) EUB0000056c FLT1; conditions: at 1 µM
# [12] = biological target: T2, Ephrin type-B receptor 1 (Homo sapiens) (UniProt P54762); test: Selectivity interaction (SelectScreen profiling (Invitrogen)) EUB0000607a EPHB1; conditions: at 2 µM
# T2 sequence (whole entry): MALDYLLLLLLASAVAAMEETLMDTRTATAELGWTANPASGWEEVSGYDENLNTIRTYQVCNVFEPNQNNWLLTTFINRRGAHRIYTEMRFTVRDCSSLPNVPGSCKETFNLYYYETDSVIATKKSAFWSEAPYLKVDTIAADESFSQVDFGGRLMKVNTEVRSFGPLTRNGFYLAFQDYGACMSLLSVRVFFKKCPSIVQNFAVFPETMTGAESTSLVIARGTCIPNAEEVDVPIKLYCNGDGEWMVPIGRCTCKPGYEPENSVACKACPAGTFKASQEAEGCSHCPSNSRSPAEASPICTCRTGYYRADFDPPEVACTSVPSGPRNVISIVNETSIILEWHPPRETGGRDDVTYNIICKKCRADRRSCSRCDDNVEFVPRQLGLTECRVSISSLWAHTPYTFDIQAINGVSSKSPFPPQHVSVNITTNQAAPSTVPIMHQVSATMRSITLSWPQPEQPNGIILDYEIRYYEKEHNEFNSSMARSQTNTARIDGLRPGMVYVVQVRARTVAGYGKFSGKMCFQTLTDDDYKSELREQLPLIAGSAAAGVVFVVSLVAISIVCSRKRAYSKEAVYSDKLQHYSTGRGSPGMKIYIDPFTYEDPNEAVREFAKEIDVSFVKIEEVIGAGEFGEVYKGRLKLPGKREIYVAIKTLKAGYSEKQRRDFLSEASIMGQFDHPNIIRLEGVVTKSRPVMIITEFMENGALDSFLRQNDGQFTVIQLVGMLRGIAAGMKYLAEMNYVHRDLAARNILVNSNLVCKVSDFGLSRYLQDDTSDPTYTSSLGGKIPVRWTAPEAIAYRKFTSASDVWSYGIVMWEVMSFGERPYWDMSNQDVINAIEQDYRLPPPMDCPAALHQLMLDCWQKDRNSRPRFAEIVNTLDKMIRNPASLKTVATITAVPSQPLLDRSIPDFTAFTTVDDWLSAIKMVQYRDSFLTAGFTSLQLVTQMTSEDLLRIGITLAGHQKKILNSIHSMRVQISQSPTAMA
# [13] = biological target: Mitogen-activated protein kinase 3 (Homo sapiens, UniProt P27361); test: Selectivity interaction (SelectScreen profiling (Invitrogen)) EUB0000607a MAPK3; conditions: at 2 µM
# Chain of Mitogen-activated protein kinase 3 (P27361 whole entry): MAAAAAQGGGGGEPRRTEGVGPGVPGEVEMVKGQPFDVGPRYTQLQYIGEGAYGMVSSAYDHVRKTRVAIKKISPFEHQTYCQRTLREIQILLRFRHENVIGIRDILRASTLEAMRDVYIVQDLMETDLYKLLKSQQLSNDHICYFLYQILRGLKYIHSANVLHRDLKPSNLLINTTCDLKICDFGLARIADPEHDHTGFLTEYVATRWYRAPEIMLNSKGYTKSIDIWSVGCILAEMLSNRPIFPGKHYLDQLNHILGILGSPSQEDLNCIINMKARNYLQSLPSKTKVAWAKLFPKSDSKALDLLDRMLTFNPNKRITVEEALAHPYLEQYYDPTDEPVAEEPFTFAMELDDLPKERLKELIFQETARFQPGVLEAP
# [14] = biological target: MAP kinase-activated protein kinase 2 (Homo sapiens, UniProt P49137); test: Selectivity interaction (KinomeScan (DiscoverX)) EUB0000607a MAPKAPK2; conditions: at 10 µM
# [15] = test system: RAF proto-oncogene serine/threonine-protein kinase (Homo sapiens), P04049 [Y340D,Y341D]; test: Selectivity interaction (Kinase panel (Z-LYTE Assay)) EUB0001632a RAF1; conditions: at 10 µM
# Chain of RAF proto-oncogene serine/threonine-protein kinase (Homo sapiens), P04049 [Y340D,Y341D] (P04049 whole entry Y340D/Y341D): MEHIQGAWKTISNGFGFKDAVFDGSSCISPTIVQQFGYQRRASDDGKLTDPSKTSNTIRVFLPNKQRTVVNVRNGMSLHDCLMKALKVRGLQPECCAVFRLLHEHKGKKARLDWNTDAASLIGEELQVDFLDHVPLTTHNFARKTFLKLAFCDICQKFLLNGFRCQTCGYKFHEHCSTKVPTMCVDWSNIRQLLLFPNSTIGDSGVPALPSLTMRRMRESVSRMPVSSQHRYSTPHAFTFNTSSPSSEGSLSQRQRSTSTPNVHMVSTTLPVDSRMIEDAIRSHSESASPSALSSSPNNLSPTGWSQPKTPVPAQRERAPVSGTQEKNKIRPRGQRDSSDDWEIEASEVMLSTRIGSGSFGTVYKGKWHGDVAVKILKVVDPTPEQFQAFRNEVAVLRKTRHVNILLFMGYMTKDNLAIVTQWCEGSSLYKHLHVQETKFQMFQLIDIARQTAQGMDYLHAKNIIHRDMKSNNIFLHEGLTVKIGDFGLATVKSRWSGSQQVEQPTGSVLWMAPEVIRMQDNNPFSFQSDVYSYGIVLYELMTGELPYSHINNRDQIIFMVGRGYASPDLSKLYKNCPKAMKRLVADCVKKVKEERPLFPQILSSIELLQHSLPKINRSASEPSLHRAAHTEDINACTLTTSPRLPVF
# [16] = biological target: RAC-beta serine/threonine-protein kinase (Homo sapiens) (UniProt P31751); test: Selectivity interaction (ProQinase) EUB0000171b AKT2
# Chain of RAC-beta serine/threonine-protein kinase (Homo sapiens) (P31751 whole entry): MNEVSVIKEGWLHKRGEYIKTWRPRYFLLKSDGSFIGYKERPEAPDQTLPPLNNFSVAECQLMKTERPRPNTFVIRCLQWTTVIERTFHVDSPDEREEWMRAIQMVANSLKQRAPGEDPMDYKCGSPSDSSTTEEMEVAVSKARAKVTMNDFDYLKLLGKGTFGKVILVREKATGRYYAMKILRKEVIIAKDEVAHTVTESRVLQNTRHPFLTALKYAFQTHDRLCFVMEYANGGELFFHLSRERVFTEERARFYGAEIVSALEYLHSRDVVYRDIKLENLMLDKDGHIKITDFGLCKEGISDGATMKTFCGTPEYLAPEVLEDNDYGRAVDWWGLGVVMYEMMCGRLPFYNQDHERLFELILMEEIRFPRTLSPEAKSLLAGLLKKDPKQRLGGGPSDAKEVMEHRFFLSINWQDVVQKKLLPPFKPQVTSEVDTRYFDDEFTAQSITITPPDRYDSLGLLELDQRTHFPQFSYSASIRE
# Chain of Tyrosine-protein kinase receptor UFO (Homo sapiens) (P30530 whole entry): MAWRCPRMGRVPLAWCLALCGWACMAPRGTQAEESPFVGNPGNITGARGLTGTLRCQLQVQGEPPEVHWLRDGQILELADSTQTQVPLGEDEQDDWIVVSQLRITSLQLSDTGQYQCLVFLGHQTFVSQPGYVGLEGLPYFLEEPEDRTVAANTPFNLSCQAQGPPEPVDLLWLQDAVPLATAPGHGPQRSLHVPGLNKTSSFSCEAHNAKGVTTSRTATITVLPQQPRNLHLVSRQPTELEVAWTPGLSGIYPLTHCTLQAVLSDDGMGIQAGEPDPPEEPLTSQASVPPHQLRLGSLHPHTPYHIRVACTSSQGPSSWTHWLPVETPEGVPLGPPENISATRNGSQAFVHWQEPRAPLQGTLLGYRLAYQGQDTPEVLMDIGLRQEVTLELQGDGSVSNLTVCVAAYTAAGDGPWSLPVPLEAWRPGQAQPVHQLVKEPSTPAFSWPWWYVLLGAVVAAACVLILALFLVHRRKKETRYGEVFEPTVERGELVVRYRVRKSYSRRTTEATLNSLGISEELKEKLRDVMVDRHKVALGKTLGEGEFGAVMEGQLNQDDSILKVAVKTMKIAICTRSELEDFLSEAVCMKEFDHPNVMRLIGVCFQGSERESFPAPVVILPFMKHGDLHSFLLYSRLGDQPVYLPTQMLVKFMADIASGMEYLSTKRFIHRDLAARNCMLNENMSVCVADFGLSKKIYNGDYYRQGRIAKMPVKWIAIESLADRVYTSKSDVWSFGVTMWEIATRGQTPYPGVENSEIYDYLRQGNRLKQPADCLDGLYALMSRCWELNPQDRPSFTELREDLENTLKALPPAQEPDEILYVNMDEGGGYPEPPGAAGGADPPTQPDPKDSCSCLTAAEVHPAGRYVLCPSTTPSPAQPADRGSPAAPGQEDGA
structure (smiles),measurement,setting,value
CC(=O)Nc1cccc(-n2c(=O)n(C3CC3)c(=O)c3c(Nc4ccc(I)cc4F)n(C)c(=O)c(C)c32)c1,% of control,[1],114%
O=C(NOC[C@H](O)CO)c1ccc(F)c(F)c1Nc1ccc(I)cc1F,% of control,[2],88%
COc1cc(N(C)c2ccnc3ccc(C(F)(F)F)cc23)cc(OC)c1OC,% binding,[3],88%
C=CC(=O)Nc1ccc(C(=O)Nc2[nH]nc3c2CN(C(=O)N[C@H](CN(C)C)c2ccccc2)C3(C)C)cc1,% of engagement,[4],4.8%
CC[C@@H](Nc1c(C#N)c(-c2ccc(-c3cccc(C)c3F)cc2)nc2cnccc12)C(=O)O [BAY-091],% of inhibition,[5],36%
CCC(=O)N1CCN(c2ccc(-n3c(=O)ccc4cnc5ccc(-c6cnc7ccccc7c6)cc5c43)cc2C(F)(F)F)CC1,% of control,[6],88%
same,% of control,[7],90%
Cc1cnc(Nc2ccc(F)cc2Cl)nc1-c1c[nH]c(C(=O)N[C@H](CO)c2cccc(Cl)c2)c1,% of inhibition,[8],3%
O[C@H]1CC[C@H](Nc2ncc3nc(Nc4c(F)cc(F)cc4F)n([C@H]4CCOC4)c3n2)CC1,% of control,[9],78%
Cc1ccc(-c2ccc3c(ccc4sc5c(c43)NC[C@@H](C)NC5=O)n2)cn1,% of inhibition,[10],-10%
same,% of inhibition,[11],21%
CNC(=O)Nc1ccc(-c2nc(N3CC4CCC(C3)O4)c3cnn(C4CCC5(CC4)OCCO5)c3n2)cc1,% of inhibition,[12],2%
same,% of inhibition,[13],1%
same,% of control,[14],82%
Cn1cc(-n2cnc3c(NCc4nc5cc(Cl)c(Cl)cc5[nH]4)nc(N4CCOCC4)nc32)cn1,% of control,[15],-1.53%
C=CC(=O)Nc1cccc(C(=O)Nc2ccc(Nc3cc(-c4[nH]c(SC)nc4C)ccn3)cc2)c1,% of control,[16]; at 1 µM,92%
same,% of control,[16]; at 5 µM,78%
